Experimental data as given in publication PMC9232501, “Results of the phase I CCTG IND.231 trial of CX-5461 in patients with advanced solid tumors enriched for DNA-repair deficiencies” (Nature Communications, 2022).
“And” between values parts separate entries of the source, which are not always exact repeats. Equal values may be shown once.

What was measured:
HCT116 cells = assay: HCT116 cytotoxicity (WST-1 assay) with and without UVA radiation; assay type: cell-based, Human
Protocol: (§1) Fig. 5 Comparison of G4 ligand photosensitization. […] Vertical axis, fractional survival, horizontal axis log10 drug concentration (M) (f) Representative images of CPD immunofluorescent staining under UV and drug treatment conditions for U2OS cells, quantified from biological duplicates in (g) (h) Scale bar = 100um. U2OS cells were treated with drug or vehicle control, then immediately irradiated with UVA 125 mJ/cm^2; and fixed 1 h later for immunofluorescence staining with CPD antibody. g Distribution of mean intensity of CPD level per cell (total n = in labels), with two biological repeats per condition. Vertical axis, mean CPD intensity per cell, horizontal axis, conditions (h) WT or KO XPA HAP1 cells assayed for cytotoxicity. Vertical axis, fractional survival (WST-1 assay). The horizontal axis, log10 drug concentration (M). Error bars = standard deviation of the mean. Three biological repeats per condition.
(§2) Human epidermal keratinocytes (HEKa) cells were sourced from Thermo Fisher Scientific, and were grown in EpiLife™ Medium with HKGS. HAP WT and XPA knockout cell lines (Horizon Discovery) were cultured in IMDM, 10% FCS. Human HCT116 cells, U2OS cells (ATCC) were grown in McCoy’s 5 A medium with 10% FBS and L-glutamine. All cell lines are mycoplasma free and have been authenticated by STR or SNP profiling. CX-5461 was provided by Senhwa Biosciences, Inc. PDS is from Sigma-Aldrich, BRACO-19 from Alfa Chemistry, PhENDC3 is from Sigma-Aldrich, γ -H2AX antibody from Abcam (1:1000 for IF) and CPD antibody (1:1500) from Cosmo Bio Ltd. (Catalog number: CAC-NM-DAD-001). The WST-1 assay was performed as previously described, γ H2AX foci staining was performed as previously described. Immunofluorescence staining of CPD was performed according to the protocol from the manufacturer (Cosmo Bio Ltd).

XPA knockout HAP1 cells = assay: HAP1 XPA knockout cytotoxicity (WST-1 assay) with and without UVA; assay type: cell-based; details: for WST-1 raw signal (Figure 5h): replicates
Protocol: as §1, §2

[1] = test system: BRCA2 and BRCA1-deficient tumor models; details: in vitro and in vivo, independently of RNA polymerase 1 inhibition; cited from earlier work
G-quadruplex (G4) DNA = test system: G-quadruplex (G4) DNA; design: method as in PMID 28211448; details: in vitro and in vivo; cited from earlier work
WT HAP1 cells = assay: HAP1 WT cytotoxicity (WST-1 assay) with and without UVA; assay type: cell-based; details: for WST-1 raw signal (Figure 5h): replicates
Protocol: as §1, §2

Structure (SMILES): Cc1cnc(CNC(=O)c2c(=O)c3ccc(N4CCCN(C)CC4)nc3n3c2sc2ccccc23)cn1 [CX-5461]
- WST-1 reading (source data of fractional survival) (HCT116 cells; 1.00E-07 M, 5mJ/cm2 UV): 0.1726 and 0.1634
- WST-1 reading (source data of fractional survival) (HCT116 cells; 1.00E-07 M, 125 mJ/cm2 UV): 0.1356 and 0.1403
- WST-1 reading (source data of fractional survival) (HCT116 cells; 1.00E-07 M, no UV): 0.3459 and 0.3709
- WST-1 reading (source data of fractional survival) (HCT116 cells; 1.25E-08 M, 5mJ/cm2 UV): 1.8446 and 1.2623
- WST-1 reading (source data of fractional survival) (HCT116 cells; 1.25E-08 M, 125 mJ/cm2 UV): 0.2266 and 0.2178
- WST-1 reading (source data of fractional survival) (HCT116 cells; 1.25E-08 M, no UV): 2.7124 and 3.0988
- WST-1 reading (source data of fractional survival) (HCT116 cells; 1.56E-09 M, 5mJ/cm2 UV): 3.1522 and 3.1435
- WST-1 reading (source data of fractional survival) (HCT116 cells; 1.56E-09 M, 125 mJ/cm2 UV): 1.3637 and 1.8262
- WST-1 reading (source data of fractional survival) (HCT116 cells; 1.56E-09 M, no UV): 3.1762 and 3.2869
- WST-1 reading (source data of fractional survival) (HCT116 cells; 2.00E-07 M, 5mJ/cm2 UV): 0.1417 and 0.1383
- WST-1 reading (source data of fractional survival) (HCT116 cells; 2.00E-07 M, 125 mJ/cm2 UV): 0.1411 and 0.1324
- WST-1 reading (source data of fractional survival) (HCT116 cells; 2.00E-07 M, no UV): 0.3331 and 0.2744
- WST-1 reading (source data of fractional survival) (HCT116 cells; 2.50E-08 M, 5mJ/cm2 UV): 0.4834 and 0.4002
- WST-1 reading (source data of fractional survival) (HCT116 cells; 2.50E-08 M, 125 mJ/cm2 UV): 0.1513 and 0.1801
- WST-1 reading (source data of fractional survival) (HCT116 cells; 2.50E-08 M, no UV): 2.611 and 2.0841
- WST-1 reading (source data of fractional survival) (HCT116 cells; 3.13E-09 M, 5mJ/cm2 UV): 2.2833 and 2.9624
- WST-1 reading (source data of fractional survival) (HCT116 cells; 3.13E-09 M, 125 mJ/cm2 UV): 0.7443 and 0.527
- WST-1 reading (source data of fractional survival) (HCT116 cells; 3.13E-09 M, no UV): 3.0831 and 3.1401
- WST-1 reading (source data of fractional survival) (HCT116 cells; 3.91E-10 M, 5mJ/cm2 UV): 3.2465 and 3.2794
- WST-1 reading (source data of fractional survival) (HCT116 cells; 3.91E-10 M, 125 mJ/cm2 UV): 2.6106 and 3.2813
- WST-1 reading (source data of fractional survival) (HCT116 cells; 3.91E-10 M, no UV): 3.2563 and 3.2975
- WST-1 reading (source data of fractional survival) (HCT116 cells; 5.00E-08 M, 5mJ/cm2 UV): 0.1995 and 0.2071
- WST-1 reading (source data of fractional survival) (HCT116 cells; 5.00E-08 M, 125 mJ/cm2 UV): 0.1444 and 0.1401
- WST-1 reading (source data of fractional survival) (HCT116 cells; 5.00E-08 M, no UV): 0.8754 and 0.871
- WST-1 reading (source data of fractional survival) (HCT116 cells; 6.25E-09 M, 5mJ/cm2 UV): 2.1762 and 2.4422
- WST-1 reading (source data of fractional survival) (HCT116 cells; 6.25E-09 M, 125 mJ/cm2 UV): 0.3527 and 0.3295
- WST-1 reading (source data of fractional survival) (HCT116 cells; 6.25E-09 M, no UV): 2.9424 and 3.2905
- WST-1 reading (source data of fractional survival) (HCT116 cells; 7.81E-10 M, 5mJ/cm2 UV): 3.2172 and 3.1228
- WST-1 reading (source data of fractional survival) (HCT116 cells; 7.81E-10 M, 125 mJ/cm2 UV): 2.9376 and 2.9926
- WST-1 reading (source data of fractional survival) (HCT116 cells; 7.81E-10 M, no UV): 3.2642 and 3.2669
- potentiation of UVA-induced cytotoxicity (HCT116 cells; UV 5 mJ/cm^2 and 125 mJ/cm^2): Strong potentiation
- WST-1 raw signal (Figure 5h) (XPA knockout HAP1 cells; conc 1.00E-07, 125 mJ/cm2 XPA): 0.1279 and 0.1288
- WST-1 raw signal (Figure 5h) (XPA knockout HAP1 cells; conc 1.00E-07, XPA No UV): 0.1234 and 0.1195
- WST-1 raw signal (Figure 5h) (XPA knockout HAP1 cells; conc 1.25E-08, 125 mJ/cm2 XPA): 0.1288 and 0.1302
- WST-1 raw signal (Figure 5h) (XPA knockout HAP1 cells; conc 1.25E-08, XPA No UV): 3.2483 and 2.9851
- WST-1 raw signal (Figure 5h) (XPA knockout HAP1 cells; conc 1.56E-09, 125 mJ/cm2 XPA): 0.1344 and 0.1335
- WST-1 raw signal (Figure 5h) (XPA knockout HAP1 cells; conc 1.56E-09, XPA No UV): 3.436 and 3.4453
- WST-1 raw signal (Figure 5h) (XPA knockout HAP1 cells; conc 2.00E-07, 125 mJ/cm2 XPA): 0.0895 and 0.1298
- WST-1 raw signal (Figure 5h) (XPA knockout HAP1 cells; conc 2.00E-07, XPA No UV): 0.1255 and 0.1238
- WST-1 raw signal (Figure 5h) (XPA knockout HAP1 cells; conc 2.50E-08, 125 mJ/cm2 XPA): 0.1291 and 0.1284
- WST-1 raw signal (Figure 5h) (XPA knockout HAP1 cells; conc 2.50E-08, XPA No UV): 0.4389 and 0.6241
- WST-1 raw signal (Figure 5h) (XPA knockout HAP1 cells; conc 3.13E-09, 125 mJ/cm2 XPA): 0.128 and 0.1287
- WST-1 raw signal (Figure 5h) (XPA knockout HAP1 cells; conc 3.13E-09, XPA No UV): 3.4207 and 3.5618
- WST-1 raw signal (Figure 5h) (XPA knockout HAP1 cells; conc 3.91E-10, 125 mJ/cm2 XPA): 2.554 and 2.4891
- WST-1 raw signal (Figure 5h) (XPA knockout HAP1 cells; conc 3.91E-10, XPA No UV): 3.4121 and 3.399
- WST-1 raw signal (Figure 5h) (XPA knockout HAP1 cells; conc 5.00E-08, 125 mJ/cm2 XPA): 0.1275 and 0.1296
- WST-1 raw signal (Figure 5h) (XPA knockout HAP1 cells; conc 5.00E-08, XPA No UV): 0.1252 and 0.1218
- WST-1 raw signal (Figure 5h) (XPA knockout HAP1 cells; conc 6.25E-09, 125 mJ/cm2 XPA): 0.1286 and 0.1316
- WST-1 raw signal (Figure 5h) (XPA knockout HAP1 cells; conc 6.25E-09, XPA No UV): 3.488 and 3.4015
- WST-1 raw signal (Figure 5h) (XPA knockout HAP1 cells; conc 7.81E-10, 125 mJ/cm2 XPA): 0.5854 and 0.7406
- WST-1 raw signal (Figure 5h) (XPA knockout HAP1 cells; conc 7.81E-10, XPA No UV): 3.4022 and 3.4603
- effect of UVA radiation on cytotoxicity (XPA knockout HAP1 cells; with UVA): to a greater extent in XPA knockout cells
- synthetic lethality [1]: synthetically lethal
- G4 binding and stabilization (G-quadruplex (G4) DNA): potent G4 binder and stabilizer
- WST-1 raw signal (Figure 5h) (WT HAP1 cells; conc 1.00E-07, 125 mJ/cm2 WT): 0.124 and 0.1238
- WST-1 raw signal (Figure 5h) (WT HAP1 cells; conc 1.00E-07, WT No UV): 0.1248 and 0.1255
- WST-1 raw signal (Figure 5h) (WT HAP1 cells; conc 1.25E-08, 125 mJ/cm2 WT): 0.124 and 0.1239
- WST-1 raw signal (Figure 5h) (WT HAP1 cells; conc 1.25E-08, WT No UV): 2.9461 and 2.8715
- WST-1 raw signal (Figure 5h) (WT HAP1 cells; conc 1.56E-09, 125 mJ/cm2 WT): 1.6148 and 1.5014
- WST-1 raw signal (Figure 5h) (WT HAP1 cells; conc 1.56E-09, WT No UV): 3.4383 and 3.4235
- WST-1 raw signal (Figure 5h) (WT HAP1 cells; conc 2.00E-07, 125 mJ/cm2 WT): 0.1302 and 0.1263
- WST-1 raw signal (Figure 5h) (WT HAP1 cells; conc 2.00E-07, WT No UV): 0.1284 and 0.1271
- WST-1 raw signal (Figure 5h) (WT HAP1 cells; conc 2.50E-08, 125 mJ/cm2 WT): 0.1237 and 0.1243
- WST-1 raw signal (Figure 5h) (WT HAP1 cells; conc 2.50E-08, WT No UV): 0.7915 and 0.7888
- WST-1 raw signal (Figure 5h) (WT HAP1 cells; conc 3.13E-09, 125 mJ/cm2 WT): 0.139 and 0.1466
- WST-1 raw signal (Figure 5h) (WT HAP1 cells; conc 3.13E-09, WT No UV): 3.3417 and 3.4651
- WST-1 raw signal (Figure 5h) (WT HAP1 cells; conc 3.91E-10, 125 mJ/cm2 WT): 3.3908 and 3.3132
- WST-1 raw signal (Figure 5h) (WT HAP1 cells; conc 3.91E-10, WT No UV): 3.3655 and 3.4278
- WST-1 raw signal (Figure 5h) (WT HAP1 cells; conc 5.00E-08, 125 mJ/cm2 WT): 0.1258 and 0.124
- WST-1 raw signal (Figure 5h) (WT HAP1 cells; conc 5.00E-08, WT No UV): 0.1245 and 0.1268
- WST-1 raw signal (Figure 5h) (WT HAP1 cells; conc 6.25E-09, 125 mJ/cm2 WT): 0.1242 and 0.126
- WST-1 raw signal (Figure 5h) (WT HAP1 cells; conc 6.25E-09, WT No UV): 3.3238 and 3.2658
- WST-1 raw signal (Figure 5h) (WT HAP1 cells; conc 7.81E-10, 125 mJ/cm2 WT): 3.145 and 2.7907
- WST-1 raw signal (Figure 5h) (WT HAP1 cells; conc 7.81E-10, WT No UV): 3.4055 and 3.3833
- effect of UVA radiation on cytotoxicity (WT HAP1 cells; with UVA): dramatically increased the cytotoxicity
